Experimental data: the METLIN SMRT retention time set (Domingo-Almenara et al. 2019)

Assay: gradient 5% acetonitrile 3 min, to 50% in 2 min, to 85% in 15 min, held 3 min, 100 µL/min
Conditions: column: Zorbax Extend-C18 2.1 x 50 mm; eluents: water / acetonitrile, 0.1% formic acid
Summary of the method: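 Retention times come from adduct peaks that were picked computationally and then checked by hand. The standards, pure and pooled in mixtures of ~100 molecules, were run on a Zorbax Extend-C18 column (2.1 × 50 mm, 1.8 μm) at 100 μL/min with water and acetonitrile, each with 0.1% formic acid. Detection was by quadrupole time-of-flight mass spectrometry in positive and negative ionization mode, with a dead volume of 40 μL and a dwell volume of 900 μL.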

## CC(=O)Nc1ccc(-c2noc(C3CCN(C(=O)C4CC4)CC3)n2)cc1
  RP-LC retention time: 689 s

## O=C1CCCc2cc(S(=O)(=O)N3CCC(C(=O)NCCc4cccs4)CC3)ccc2N1
  RP-LC retention time: 717 s

## CC(C)c1cc(C(=O)Nc2cccc(Cl)c2)nn1C1CCS(=O)(=O)C1 (stereo not given)
  RP-LC retention time: 994 s

## Cc1csc(-c2cc(S(=O)(=O)NCCCN3CCCc4ccccc43)c(C)s2)n1
  RP-LC retention time: 1420 s

## CCCC(=O)Nc1ccc(-n2cnc(C(=O)N3CCN(c4cccc(C)c4C)CC3)c2)nc1
  RP-LC retention time: 929 s

## CCn1ncc(NC(=O)c2ccc(Br)cc2)c(N2CCOCC2)c1=O
  RP-LC retention time: 884 s

## O=C(Cn1nc2c(SC3CCCCC3)nccn2c1=O)Nc1ccc(Br)cc1F
  RP-LC retention time: 1120 s

## Cc1ncoc1C(=O)N1CCCCCNC(=O)[C@@H]2CCC[C@@H]21
  RP-LC retention time: 621 s

## Cc1ccc(C(=O)N2CCCCC2c2nc(-c3cccnc3)no2)cn1 (stereo not given)
  RP-LC retention time: 641 s

## CC(C)NC(=O)c1ccc2c(c1)nc(CN(C)C(=O)Nc1ccc3c(c1)OCO3)n2C
  RP-LC retention time: 606 s

## Cc1ccc(-c2noc(CSc3nc4cc5c(cc4c(=O)n3Cc3ccncc3)OCO5)n2)cc1
  RP-LC retention time: 845 s

## CCc1cccc(NC(=O)C2CCN(C(=O)C3Sc4ccccc4NC3=O)CC2)c1 (stereo not given)
  RP-LC retention time: 762 s

## COc1ccc(-c2nnc(COc3cccc(NC(=O)C4CCCC4)c3)o2)cc1
  RP-LC retention time: 959 s

## CCOC(=O)c1sc(NC(=O)C2CC(=O)N(c3n[nH]c4ccccc34)C2)nc1C (stereo not given)
  RP-LC retention time: 750 s

## O=C(CSc1nc(N2CCCCC2)nc2ccccc12)Nc1cccc(Br)c1
  RP-LC retention time: 812 s

## Cc1noc(C)c1S(=O)(=O)Nc1cc2c3c(c1)CC(=O)N3CCC2
  RP-LC retention time: 672 s

## O=C(NC1CC1)c1cc(N2CCCC2)nc2ccc(F)cc12
  RP-LC retention time: 600 s

## CC(C)Cn1cc(CCNC(=O)c2ccc(F)c(Cl)c2)c2cccnc21
  RP-LC retention time: 909 s

## O=C(Nc1cccc(Cl)c1F)N1CC(F)(F)C[C@H]1CN1CCCC1
  RP-LC retention time: 662 s

## CC(=O)c1ccc(NC(=O)C(C)Oc2cc(-c3ccccc3)c3c(C)nn(C)c3n2)cc1 (stereo not given)
  RP-LC retention time: 990 s

## CCn1cc(CC(=O)NC(C)c2ccc(F)cc2)c2cccnc21 (stereo not given)
  RP-LC retention time: 732 s

## O=C(Cn1cccc1-c1nc(-c2ccc(Cl)cc2)cs1)NCCN1CCOCC1
  RP-LC retention time: 711 s

## Cc1sc(NC(=O)c2ccccc2)nc1-c1ccc2c(c1)NC(=O)CO2
  RP-LC retention time: 857 s

## CCS(=O)(=O)c1nc2ccc(NS(=O)(=O)c3ccc(OC)cc3)cc2s1
  RP-LC retention time: 833 s

## CSc1ccc(CC(=O)Nc2nnc(-c3cc(C)n(C)n3)o2)cc1
  RP-LC retention time: 669 s

## Cc1ccc(C(=O)Nc2cnc(N3CCCCCC3)nc2)s1
  RP-LC retention time: 910 s

## O=C(CCC1CCCC1)NCCC1CCN(C(=O)Nc2cc(F)cc(F)c2)CC1
  RP-LC retention time: 971 s

## Cc1ccn2cc(C(=O)N3CCN(c4ccc(F)cc4)CC3)nc2c1
  RP-LC retention time: 650 s

## COc1cccc(-c2csc(-c3nnn(-c4ccc(C)cc4)c3N)n2)c1
  RP-LC retention time: 1140 s

## c1ccc(OCc2cn(CCC3CCCCN3)nn2)cc1 (stereo not given)
  RP-LC retention time: 552 s

## COCCN1C(=O)CCc2cc(NC(=O)c3cncc(Br)c3)ccc21
  RP-LC retention time: 716 s

## CC1CCN(Cc2nc3cc(NC(=O)c4ccco4)ccc3n2C(C)C)CC1
  RP-LC retention time: 643 s

## C=Cc1ccc(CN2C(=O)N(c3ccc(F)cc3)c3ncccc3S2(=O)=O)cc1
  RP-LC retention time: 886 s

## O=C(NC1CCCCC1)NC1CCN(C(=O)C2CC2)C1 (stereo not given)
  RP-LC retention time: 663 s

## COC[C@@H]1CN(c2cnccn2)C[C@H]1C(=O)NCCn1ccnc1
  RP-LC retention time: 498 s

## CC(C)NC(=O)N1CCCN(S(C)(=O)=O)CC1
  RP-LC retention time: 598 s

## Cc1cccc(NC(=O)c2c(O)c3cccnc3n(-c3ccccc3)c2=O)c1C
  RP-LC retention time: 1300 s

## COCCC(=O)Nc1cnn(-c2ncc(N3CCCCC3)cn2)c1
  RP-LC retention time: 667 s

## Cc1cc(C)c(Nc2ccnc(Nc3ccc(C#N)cc3)n2)c(C)c1
  RP-LC retention time: 798 s

## Cn1nccc1C(=O)Nc1ccc(Br)cc1
  RP-LC retention time: 791 s

## O=C(Cc1ccccc1F)Nc1ccc(-c2cn3c(C(=O)N4CCCC4)csc3n2)cc1
  RP-LC retention time: 791 s

## Cc1ccc(-c2cc3c(=O)n(CC(O)c4ccccc4)ccn3n2)c(C)c1 (stereo not given)
  RP-LC retention time: 982 s

## Cn1ncc2c3ccccc3n(CC(=O)NCCCN3CCN(Cc4ccccc4)CC3)c2c1=O
  RP-LC retention time: 597 s

## c1ccc2c(c1)CCC[C@H]2Nc1nc2ccccc2[nH]1
  RP-LC retention time: 705 s

## Cc1ccc(C(=O)N2CCc3[nH]cnc3C23CCCCC3)s1
  RP-LC retention time: 606 s

## COc1cc(=O)n2c(c1C(=O)Nc1ccc(Br)cc1F)CCCC2
  RP-LC retention time: 777 s

## Cc1noc(C)c1-c1ccc(S(=O)(=O)N2CCN(C)CC2)cc1
  RP-LC retention time: 610 s

## COc1ccc(-c2nnc(N3CCC(C(=O)NC4CCCCC4)CC3)o2)cc1
  RP-LC retention time: 811 s

## Cn1ccc2c(cc(C(=O)NCc3ccccc3F)n2C)c1=O
  RP-LC retention time: 678 s

## Cn1c(=O)c2cc(C(=O)Nc3ccc(F)cc3)cnc2n(-c2ccccc2)c1=O
  RP-LC retention time: 868 s

## Cc1cccc(-c2nc(Cn3nnc(C(=O)NCc4ccc(C(C)C)cc4)c3C)c(C)o2)c1
  RP-LC retention time: 1310 s

## CCN1C(=O)C2(CCN(S(=O)(=O)Cc3ccccc3)CC2)c2ccccc21
  RP-LC retention time: 976 s

## CC1(C)CC(=O)c2c(nc(N3CCN(c4ncccn4)CC3)nc2Nc2ccccc2)C1
  RP-LC retention time: 1330 s

## COC(=O)c1cc(S(=O)(=O)N2CCCC2C(=O)Nc2c(Cl)cc(OC)cc2OC)cn1C (stereo not given)
  RP-LC retention time: 930 s

## Cc1csc(-c2cc(S(=O)(=O)N3CCN(C(C)C)CC3)cn2CC(=O)N2CCCCC2)n1
  RP-LC retention time: 688 s

## Cc1ccccc1S(=O)(=O)N1CCC(C(=O)NCCc2csc(-c3cccs3)n2)CC1
  RP-LC retention time: 922 s

## CCc1noc([C@@H]2CC(F)(F)CN2C(=O)Cn2ccnc2)n1
  RP-LC retention time: 570 s

## Cc1c(-c2cccc(NC(=O)c3cccs3)c2)nc2ncccn12
  RP-LC retention time: 638 s

## CS(=O)(=O)N1CCCCC1c1nncn1Cc1ccccc1 (stereo not given)
  RP-LC retention time: 691 s

## CCOC(=O)c1c(S(=O)(=O)N2CCC(C(=O)Nc3ncccc3C)CC2)c(C)n(C)c1C
  RP-LC retention time: 632 s

## CC(C)CC(=O)N1CCN(c2ccc(=O)n(-c3ccc(C(C)C)cc3)n2)CC1
  RP-LC retention time: 902 s

## COc1cccc(NC(=O)CSc2cc(N3CCN(c4ccccc4OC)CC3)ncn2)c1
  RP-LC retention time: 938 s

## COc1ccc(NC(=O)c2cn(C)nc2S(=O)(=O)N2CCSCC2)cc1
  RP-LC retention time: 848 s

## COCCNC(=O)CSc1nccnc1Oc1ccc(C)cc1
  RP-LC retention time: 798 s

## CCC(C(=O)N1CCN(c2ccc3nnc(-c4ccco4)n3n2)CC1)c1ccccc1 (stereo not given)
  RP-LC retention time: 727 s

## Cc1ccccc1CNC(=O)c1cc2n(n1)CC(C)(C(=O)NCc1ccccc1)N(C)C2=O (stereo not given)
  RP-LC retention time: 769 s

## CCc1cccc(C)c1Nc1c(-c2cccc(O)c2)nc2nc(C)cc(C)n12
  RP-LC retention time: 712 s

## COC(=O)c1ccccc1NC(=O)C1(c2cccs2)CCOCC1
  RP-LC retention time: 1030 s

## Cc1ccccc1Cn1c(CN2CCC(C(=O)NCCC(C)C)CC2)cc2ccccc21
  RP-LC retention time: 822 s

## O=C(Nc1ccc2c(c1)N(C(=O)c1cccs1)CCC2)c1ccccc1Br
  RP-LC retention time: 850 s

## CCS(=O)(=O)c1ccc(CC(=O)Nc2ccc(F)cc2F)cc1
  RP-LC retention time: 711 s

## O=C(NCCSc1ncc(-c2ccc(F)cc2)[nH]1)c1cccs1
  RP-LC retention time: 584 s

## COc1cccc(C(=O)NCCOc2cccc(C(F)(F)F)c2)c1OC
  RP-LC retention time: 972 s

## Cc1ccc(NC(=O)C2CCN(C(=O)c3ncn4c3COC(c3ccc(F)cc3)C4)CC2)c(C)c1 (stereo not given)
  RP-LC retention time: 832 s

## CCc1ccccc1S(=O)(=O)N1CCc2c(c(-c3nc(C4CC4)no3)nn2C)C1
  RP-LC retention time: 1010 s

## Cc1sc2ccn(C)c(=O)c2c1C(=O)NCc1cccc(Br)c1
  RP-LC retention time: 834 s

## O=C(Cn1nc2c(N3CCCCCC3)nccn2c1=O)Nc1ccc(F)cc1
  RP-LC retention time: 715 s

## CCn1nccc1C(=O)NCC1Cn2cccc2C(=O)N1C (stereo not given)
  RP-LC retention time: 605 s

## O=C(CCCc1ccccc1)N1CCN(c2ccc(Nc3cccnc3)nn2)CC1
  RP-LC retention time: 575 s

## Cc1ccc(Sc2nccnc2N2CCCC(C(=O)NCc3ccccn3)C2)cc1 (stereo not given)
  RP-LC retention time: 766 s

## CCOc1ccc(NC(=O)N2CCN(Cc3nc4ccc(C)cc4o3)CC2)cc1
  RP-LC retention time: 733 s

## CCOC(=O)c1cn2nc(SCc3ccccc3)nc2nc1C
  RP-LC retention time: 1000 s

## CCN(CC)C(=O)N1CC(Oc2ccc(-c3nc(C)no3)cc2)C1
  RP-LC retention time: 824 s

## COc1cc(OC)c(NC(=O)Cn2cc3c(n2)CCCC3)cc1Cl
  RP-LC retention time: 906 s

## O=C(Cn1ccc2ccc(N3CCOCC3)nc21)NCc1ccc(C(F)(F)F)cc1
  RP-LC retention time: 958 s

## C=C1C[C@@]23CC[C@H]4[C@@](C)(CCC[C@@]4(C)C(=O)O)[C@@H]2CC[C@]1(O)C3
  RP-LC retention time: 1030 s

## CCN1C(=O)c2cc(S(=O)(=O)Nc3cc(C)ccc3C)ccc2Oc2cccnc21
  RP-LC retention time: 1100 s

## CC1(C)Cc2cccc(OCC(=O)N3CCN(CCn4cccn4)CC3)c2O1
  RP-LC retention time: 583 s

## COc1ccc(OC)c(S(=O)(=O)N2C[C@@H](F)C[C@H]2C(=O)N2CCCCC2)c1
  RP-LC retention time: 762 s

## O=C(Nc1cccc(-c2nnc3n2CCCC3)c1)c1ccoc1
  RP-LC retention time: 640 s
